Our source for the IC50 values is BindingDB's records for patent US11365204 (Union therapeutics A/S, 2022).

A value given as a limit tells only on which side of the number the result lay.

Sequence of Tumor necrosis factor (P01375 whole entry): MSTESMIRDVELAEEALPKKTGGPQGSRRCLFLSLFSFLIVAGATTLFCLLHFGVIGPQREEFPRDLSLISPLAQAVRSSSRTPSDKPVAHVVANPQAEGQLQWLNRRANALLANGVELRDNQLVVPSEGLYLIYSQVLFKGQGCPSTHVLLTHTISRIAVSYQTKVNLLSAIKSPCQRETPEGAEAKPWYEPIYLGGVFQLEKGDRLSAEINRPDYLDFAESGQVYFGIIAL

The assay concerns the target Tumor necrosis factor (Homo sapiens, UniProt P01375). The assay is described as follows: TNF-alpha RELEASE. On the procedure: Human peripheral blood mononuclear cells (PBMC) were isolated from fresh buffy coats by density centrifugation using lymphoprep tubes (Medinor). Frozen PBMC's were washed in serum free assay buffer (RPMI1640 with 25 mM HEPES, 1% pen/strep, […], 0.5% human serum albumin) and living cells counted. Lipopolysaccharide (1 microg/ml; SIGMA) was added to the cells which were then transferred to 384 well tissue culture plates (5×105 c/ml) containing titrated test compounds. The cells were incubated for 18 hours at 37° C. in serum free assay buffer and the level of TNFalpha in the supernatant was quantitated by AlphaLISA (PerkinElmer) by measuring fluorescence intensity at 615 nm.Results were expressed as IC50 values calculated from inhibition curves using as controls the secretion in LPS stimulated wells and the secretion in cells incubated with 10 microM of a PDE4 inhibitor reference compound.
Usually IC50 stands for the concentration that gives 50% inhibition. A lower IC50 goes with higher potency. Compound `CC(=O)N1CC[C@H](Nc2nc(N3CC(OC(=O)c4cnsc4)C3)nc3c2[S@+]([O-])CC3)C1` [US11365204, Example 72] yielded an IC50 of less than 100 nM. `CC(=O)N1CC[C@H](Nc2nc(N3CC(OC(=O)c4cscn4)C3)nc3c2[S@+]([O-])CC3)C1` [US11365204, Example 73] came in with an IC50 of 300 nM. This lies in the sub-micromolar range. As for `CC(=O)N1CC[C@H](Nc2nc(N3CC(OC(=O)C4CCOCC4)C3)nc3c2[S@+]([O-])CC3)C1` [US11365204, Example 74], the IC50 was determined as 300 nM.

Regarding `CC(=O)N1CCC(Nc2nc(N3CC(OC(=O)c4cscn4)C3)nc3c2[S+]([O-])CC3)CC1` (centres undefined) [US11365204, Example 76], the IC50 is greater than 500 nM.
